Results taken from patent US6630469B2, “5-HT7 receptor antagonists” (Bristol-Myers Squibb Company, priority 2000, dated 2003).

Molecular target: T1, human 5-HT7 receptor (Homo sapiens, UniProt P34969)
T1 construct: expressed in transfected cells; host or cells: CHO cells
Experiment: 5-HT7 Receptor Binding Assay
Conditions: membranes of CHO cells expressing human 5-HT7 receptor; 1 nM 3H-5-carboxamidotryptamine; 25° C., 60 minutes
Protocol: 5-HT7 Receptor Binding Assay
Membranes are prepared for binding using the human 5-HT7 receptor expressed in CHO cells. Cells are collected and ruptured using a dounce homogenizer. The cells are spun at 18000× g for 10 minutes and the pellet is resuspended in assay buffer, frozen in liquid nitrogen and kept at −80° C. until the day of the assay.
A total of 30 ug protein is used per well. The assay is carried out in 96-deep-well plates. The assay buffer is 50 mM HEPES. The membrane preparation is incubated at 25° C. for 60 minutes with 0.1 nM to 1000 nM test compound and 1 nM ^3H-5-carboxamidotryptamine. 10 uM serotonin is used as blocking agent to determine non-specific binding. The reaction is terminated by the addition of 1 ml of ice cold 5OmM HEPES buffer and rapid filtration through a Brandel Cell Harvester using Whatman GF/B filters. The filter pads are counted in an LKB Trilux liquid scintillation counter. IC50 values are determined using non-linear regression by Exel-fit.

T1 sequence (P34969 whole entry): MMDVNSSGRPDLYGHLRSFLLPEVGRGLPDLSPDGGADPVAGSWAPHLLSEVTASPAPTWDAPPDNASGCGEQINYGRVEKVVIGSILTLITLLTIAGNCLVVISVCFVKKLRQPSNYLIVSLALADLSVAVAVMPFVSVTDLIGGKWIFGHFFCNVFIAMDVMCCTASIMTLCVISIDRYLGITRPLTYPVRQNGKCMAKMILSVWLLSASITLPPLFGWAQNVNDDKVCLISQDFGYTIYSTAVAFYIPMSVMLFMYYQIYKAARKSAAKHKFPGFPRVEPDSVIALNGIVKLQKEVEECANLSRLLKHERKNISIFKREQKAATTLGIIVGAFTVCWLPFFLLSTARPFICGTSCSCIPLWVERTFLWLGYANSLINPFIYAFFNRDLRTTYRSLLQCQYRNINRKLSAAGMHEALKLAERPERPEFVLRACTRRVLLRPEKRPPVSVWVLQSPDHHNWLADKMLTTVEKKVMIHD

SMILES	IC50
C[C@H](Nc1nc(N)nc(NCCOc2ccc(F)cc2)n1)c1ccc([N+](=O)[O-])cc1 [Compound 45, N^2-[2-(4-Fluorophenoxy)ethyl]-N^4-[(1S)-1-(4-nitrophenyl)ethyl]-1,3,5-triazine-2,4,6-triamine]	51 to 100 nM
CC(Nc1ccnc(NCCc2ccc(Cl)c(Cl)c2)n1)c1ccccc1 (stereo not shown) [N^2-[2-(3,4-Dichlorophenyl)ethyl]-N^4-(1-phenylethyl)pyrimidine-2,4-diamine]	51 to 100 nM
CC[C@H](Nc1nc(N)nc(NCCOc2ccccc2)n1)c1ccccc1 [Compound 40, N^2-[2-(Phenoxy)ethyl]-N^4-[(1S)-1-phenylpropyl]-1,3,5-triazine-2,4,6-triamine]	51 to 100 nM
FC(F)(F)c1ccc(CNc2ccnc(NCCc3ccccc3)n2)cc1 [N^2-(2-Phenylethyl)-N^4-[4-(trifluoromethyl)phenylmethyl]pyrimidine-2,4-diamine]	101 to 200 nM
CC(Nc1ccnc(NCCc2cccc(C(F)(F)F)c2)n1)c1ccccc1 (stereo not shown) [N^4-(1-Phenylethyl)-N^2-{2-[3-(trifluoromethyl)phenyl]ethyl}pyrimidine-2,4-diamine]	51 to 100 nM
CC(Nc1ccnc(NCCc2cccc3c2OCO3)n1)c1ccccc1 (stereo not shown) [N^2-[2-(4-Benzodioxolyl)ethyl]-N^4-(1-phenylethyl)pyrimidine-2,4-diamine]	101 to 200 nM
Clc1cccc(CNc2ccnc(NCCc3ccccc3)n2)c1 [N^4-(3-Chlorophenylmethyl)-N^2-(2-phenylethyl)pyrimidine-2,4-diamine]	101 to 200 nM
CC[C@H](Nc1nc(N)nc(NCCc2cccc(C(F)(F)F)c2)n1)c1ccccc1 [Compound 36, N^2-[(1S)-1-Phenylpropyl]-N^4-[2-(3-(trifluoromethyl)phenyl)ethyl]-1,3,5-triazine-2,4,6-triamine]	101 to 200 nM
CC(Nc1ccnc(NCCc2cccc(Br)c2)n1)c1ccccc1 (stereo not shown) [Compound 8, N^2-[2-(3-Bromophenyl)ethyl]-N^4-(1-phenylethyl)pyrimidine-2,4-diamine]	51 to 100 nM
Fc1cc(CNc2ccnc(NCCOc3ccccc3)n2)cc(C(F)(F)F)c1 [N^4-[3-Fluoro-5-(trifluoromethyl)phenylmethyl]-N^2-(2-phenoxyethyl)pyrimidine-2,4-diamine]	101 to 200 nM
C[C@H](Nc1nc(N)nc(NCCNc2ccccc2)n1)c1cccc2ccccc12 [Compound 38, N^2-[(1S)-1-(1-Napthalenyl)ethyl]-N^4-[2-(phenylamino)ethyl]-1,3,5-triazine-2,4,6-triamine]	101 to 200 nM
C[C@H](Nc1nc(N)nc(NCCC2=CCCCC2)n1)c1ccccc1 [Compound 57, N^2-[2-(1-Cyclohexenyl)ethyl]-N^4-[(1S)-1-phenylethyl]-1,3,5-triazine-2,4,6-triamine]	51 to 100 nM
CC(CNc1nccc(NC(C)c2ccccc2)n1)c1ccccc1 (stereo not shown) [N^4-(1-Phenylethyl)-N^2-(2-phenylpropyl)pyrimidine-2,4-diamine]	51 to 100 nM
C[C@H](Nc1nc(N)nc(NCCc2cccc(Cl)c2)n1)c1ccc([N+](=O)[O-])cc1 [Compound 58, N^2-[2-(3-Chlorophenyl)ethyl]-N^4-[(1S)-1-(4-nitrophenyl)ethyl]-1,3,5-triazine-2,4,6-triamine]	51 to 100 nM
Clc1cccc(CNc2ccnc(NCCOc3ccccc3)n2)c1 [N^4-(3-Chlorophenylmethyl)-N^2-(2-phenoxyethyl)pyrimidine-2,4-diamine]	≤ 50 nM
C[C@H](Nc1nc(N)nc(NCCc2ccc(F)cc2)n1)c1ccc(Br)cc1 [Compound 70, N^2-[(1S)-1-(4-Bromophenyl)ethyl]-N^4-[2-(4-fluorophenyl)ethyl]-1,3,5-triazine-2,4,6-triamine]	≤ 50 nM
CC(Nc1ccnc(NCCn2ccc3ccccc32)n1)c1ccccc1 (stereo not shown) [Compound 28, N^2-[2-(1H-Indol-1-yl)ethyl]-N^4-(1-phenylethyl)pyrimidine-2,4-diamine]	≤ 50 nM
c1ccc(CCNc2nccc(NCc3ccncc3)n2)cc1 [N^2-(2-Phenylethyl)-N^4-(4-pyridinylmethyl)pyrimidine-2,4-diamine]	101 to 200 nM
C[C@H](Nc1nc(N)nc(NCCOc2ccccc2)n1)c1ccccc1 [Compound 41, N^2-[2-(Phenoxy)ethyl]-N^4-[(1S)-1-phenylethyl]-1,3,5-triazine-2,4,6-triamine]	51 to 100 nM
Fc1cccc(CNc2ccnc(NCCc3ccccc3)n2)c1 [N^4-(3-Fluorophenylmethyl)-N^2-(2-phenylethyl)pyrimidine-2,4-diamine]	≤ 50 nM
Cc1ccc([C@@H](C)Nc2ccnc(NCCOc3ccccc3)n2)cc1 [N^4-[(1R)-1-(4-Methylphenyl)ethyl]-N^2-(2-phenoxyethyl)pyrimidine-2,4-diamine]	51 to 100 nM
C[C@@H](Nc1ccnc(NCCc2ccccc2)n1)c1ccccc1 [N^2-(2-Phenylethyl)-N^4-[(1R)-1-phenylethyl]pyrimidine-2,4-diamine]	101 to 200 nM
COc1cc(CCNc2nc(C)cc(N[C@@H](C)c3ccccc3)n2)cc(OC)c1 [N^2-[2-(3,5-Dimethoxyphenyl)ethyl]-6-methyl-N^4-[(1S)-1-phenylethyl]pyrimidine-2,4-diamine]	51 to 100 nM
c1ccc(CCNc2nccc(NCc3cccnc3)n2)cc1 [Compound 11, N^2-(2-Phenylethyl)-N^4-(3-pyridinylmethyl)pyrimidine-2,4-diamine]	51 to 100 nM
C[C@H](Nc1nc(N)nc(NCCc2ccc(Cl)cc2)n1)c1ccc([N+](=O)[O-])cc1 [Compound 59, N^2-[2-(4-Chlorophenyl)ethyl]-N^4-[(1S)-1-(4-nitrophenyl)ethyl]-1,3,5-triazine-2,4,6-triamine]	51 to 100 nM
CC(Nc1ccnc(NCCc2ccccn2)n1)c1ccccc1 (stereo not shown) [Compound 12, N^4-(1-Phenylethyl)-N^2-[2-(2-pyridinyl)ethyl]pyrimidine-2,4-diamine]	51 to 100 nM
C[C@H](Nc1nc(N)nc(NCCc2ccccn2)n1)c1ccc(F)cc1 [Example 18, N^2-[(1S)-1-(4-Fluorophenyl)ethyl]-N^4-[2-(2-pyridinyl)ethyl]-1,3,5-triazine-2,4,6-triamine]	≤ 50 nM

Second part, the molecule after the results:

IC50	SMILES
≤ 50 nM	CC[C@H](Nc1ccnc(NCCc2ccccc2)n1)c1ccccc1 [N^2-(2-Phenylethyl)-N^4-[(1S)-1-phenylpropyl]pyrimidine-2,4-diamine]
≤ 50 nM	C[C@H](Nc1ccnc(NCCc2ccccc2)n1)c1ccccc1 [N^4-[(1S)-1-Phenylethyl]-N^2-(2-phenylethyl)pyrimidine-2,4-diamine]
≤ 50 nM	C[C@H](Nc1nc(N)nc(NCCc2cccc(O)c2)n1)c1ccccc1 [Compound 73, N^2-[2-(3-Hydroxyphenyl)ethyl]-N^4-[(1S)-1-phenylethyl]-1,3,5-triazine-2,4,6-triamine]
≤ 50 nM	CC[C@H](Nc1nc(N)nc(NCCc2cccc(Cl)c2)n1)c1ccccc1 [Compound 69, N^2-[2-(3-Chlorophenyl)ethyl]-N^4-[(1S)-1-phenylpropyl]-1,3,5-triazine-2,4,6-triamine]
≤ 50 nM	CC(Nc1ccnc(N(C)CCc2c[nH]c3ccccc23)n1)c1ccccc1 (stereo not shown) [Compound 30, N^2-[2(1H-Indol-3-yl)ethyl]-N^2-(methyl)-N^4-(1-phenylethyl)pyrimidine-2,4-diamine]
≤ 50 nM	Cc1ccc(CNc2ccnc(NCCOc3ccccc3)n2)cc1Cl [N^4-(3-Chloro-4-methylphenylmethyl)-N^2-(2-phenoxyethyl)pyrimidine-2,4-diamine]
≤ 50 nM	COc1cccc(CNc2ccnc(NCCc3ccccc3)n2)c1 [N^4-(3-Methoxyphenylmethyl)-N^2-(2-phenylethyl)pyrimidine-2,4-diamine]
≤ 50 nM	c1ccc(OCCNc2nccc(NCc3ccncc3)n2)cc1 [Compound 19, N^2-(2-Phenoxyethyl)-N^4-(4-pyridinylmethyl)pyrimidine-2,4-diamine]
≤ 50 nM	c1ccc(CCNc2nccc(NCc3cccs3)n2)cc1 [Compound 27, N^2-(2-Phenylethyl)-N^4-(2-thienylmethyl)pyrimidine-2,4-diamine]
≤ 50 nM	COc1cccc(CCNc2nccc(NC(C)c3ccccc3)n2)c1 (stereo not shown) [N^2-[2-(3-Methoxyphenyl)ethyl]-N^4-(1-phenylethyl)pyrimidine-2,4-diamine]
≤ 50 nM	C[C@H](Nc1nc(N)nc(NCCc2ccc(N)cc2)n1)c1ccc([N+](=O)[O-])cc1 [Compound 78, N^2-[2-(4-Aminophenyl)ethyl]-N^4-[(1S)-1-(4-nitrophenyl)ethyl]-1,3,5-triazine-2,4,6-triamine]
≤ 50 nM	COc1ccccc1CNc1ccnc(NCCc2ccccc2)n1 [N^4-(2-Methoxyphenylmethyl)-N^2-(2-phenylethyl)pyrimidine-2,4-diamine]
≤ 50 nM	C[C@H](Nc1nc(N)nc(NCCc2ccc(O)cc2)n1)c1ccc([N+](=O)[O-])cc1 [Compound 75, N^2-[2-(4-Hydroxyphenyl)ethyl]-N^4-[(1S)-1-(4-nitrophenyl)ethyl]-1,3,5-triazine-2,4,6-triamine]
≤ 50 nM	Cc1ccc(CCNc2nccc(NC(C)c3ccccc3)n2)cc1 (stereo not shown) [N^2-[2-(4-Methylphenyl)ethyl]-N^4-(1-phenylethyl)pyrimidine-2,4-diamine]
≤ 50 nM	C[C@H](Nc1nc(N)nc(NCCc2ccc(F)cc2)n1)c1ccc([N+](=O)[O-])cc1 [Compound 74, N^2-[2-(4-Fluorophenyl)ethyl]-N^4-[(1S)-1-(4-nitrophenyl)ethyl]-1,3,5-triazine-2,4,6-triamine]
≤ 50 nM	C[C@H](Nc1nc(N)nc(NCCc2cccc(F)c2)n1)c1ccccc1 [Compound 61, N^2-[2-(3-Fluorophenyl)ethyl]-N^4-[(1S)-1-phenylethyl]-1,3,5-triazine-2,4,6-triamine]
